Values after ≈ are worked out from the molar mass of the structure shown. Where a SMILES comes first, the peptide text is derived from it. The star is where a group is joined. Lauroyl = CCCCCCCCCCCC(=O)*
Columns and labels:
[1] = tested on: L. monocytogenes DSM 20600; type: cell-based, Listeria monocytogenes; conditions: DSM 20600, 24 h
Source text: (§1) Bacteria used in this study were Escherichia coli ATCC 25922 and O18K1H7, Staphylococcus aureus ATCC 25923 and ATCC 29213, Pseudomonas aeruginosa ATCC 27853, Staphylococcus epidermidis ATCC 12228, Enterococcus faecalis ATCC 29212, Bacillus subtilis DSM 4181, Listeria monocytogenes DSM 20600, Salmonella typhimurium ATCC 14028, Acinetobacter baumannii ATCC 19606 and 17978, Klebsiella pneumoniae ATCC 13883 and 700603, Stenotrophomonas maltophilia ATCC 13637 and Burkholderia cenocepacia J2315. In addition to reference strains, a clinical isolate of E. faecalis vancomycin-resistant (VREF, strain M), and three clinical isolates of S. aureus methicillin-resistant (MRSA, strains E, G and 11), kindly provided by Dr. Lucilla Dolzani, were used. All MRSA strains are resistant to GEN, IPM, OXA, PEN, CIP and CEF; the S. aureus E strain is also resistant to CLI and ERY. VREF strain is resistant to AMK, ATM, GEN, NET, PEN, TEC, TET, TOB and VAN.
(§2) For the assays, overnight bacterial cultures were diluted 1:30 in fresh Mueller-Hinton Broth (MHB, Difco) and incubated at 37°C with shaking for approximately 2h.
(§3) The antimicrobial activity of USCLs was determined by the Minimum Inhibitory Concentration (MIC) assay, according to the guidelines of CLSI (Clinical & Laboratory Standards Institute) and described in [30, 31]. Briefly, the assays were performed in 96-well microplates in appropriate broth (MHB or SAB). […] For bacteria, a mid-log phase bacterial suspension at 2.5 × 10^5 CFU/mL in MHB was used, and the microplates incubated at 37°C for 24h. The fungal suspension in SAB broth was used at a final concentration of 5 × 10^4 cells/mL. Microplates were then incubated at 30°C for 48h. The MIC value was taken as the lowest concentration of USCLs resulting in the complete inhibition of visible bacterial or fungal growth after appropriate incubation time. Results derive from at least three independent experiments carried out in duplicate.

[2] = tested on: S. maltophilia ATCC 13637; type: cell-based, Stenotrophomonas maltophilia; conditions: ATCC 13637, 48 h
Source text: as §1, §2
as §3, with “For bacteria, a mid-log phase bacterial suspension at 2.5 × 10^5 CFU/mL in MHB was used, and the microplates incubated at 37°C for 24h.” left out

[3] = tested on: C. albicans ATCC 90029; type: cell-based, Candida albicans; conditions: ATCC 90029, 48 h
Protocol: (§4) Fungal strains used were Candida albicans ATCC 90029 and SC5314. Fungi were grown on Sabouraud dextrose (SAB, Difco) agar plates at 30°C for 48h. The initial fungal inoculum was prepared by picking and suspending five colonies in 5 mL of sterile PBS.
as §3

[4] = tested on: C. albicans SC 5314; type: cell-based, Candida albicans; conditions: SC 5314, 48 h
Protocol: as §4, §3

[5] = tested on: E. faecalis ATCC 29212; type: cell-based, Enterococcus faecalis; conditions: ATCC 29212, 24 h
Source text: as §1, §2, §3

[6] = tested on: E. coli O18K1H7; type: cell-based, Escherichia coli; conditions: O18K1H7, 24 h
Source text: as §1, §2, §3

[7] = tested on: K. pneumoniae ATCC 700603; type: cell-based, Klebsiella pneumoniae; conditions: ATCC 700603, 24 h
Source text: as §1, §2, §3

[8] = tested on: K. pneumoniae ATCC 13883; type: cell-based, Klebsiella pneumoniae; conditions: ATCC 13883, 24 h
Source text: as §1, §2, §3

[9] = RP-HPLC retention time (hydrophobicity); type: physicochemical; conditions: stated to reliably reflect the hydrophobicity in aqueous solution, assessed and provided by GenScript
Protocol: GenScript (Piscataway, NJ, USA) carried out the custom synthesis of USCLs by using high efficient solid phase peptide synthesis. The fatty acid was conjugated to the N-terminus of the peptide using the same procedure followed to attach protected amino acids to the growing peptide chain for synthesis. The purity (>90%), sequence and molecular weight of USCLs were assessed and provided by GenScript using RP-HPLC and ESI-MS. USCLs were dissolved in sterile water or DMSO at 10 mg/mL, according to manufacturer's indications.

[10] = tested on: S. aureus ATCC 29213; type: cell-based, Staphylococcus aureus; conditions: ATCC 29213, 24 h
Source text: as §1, §2, §3

[11] = tested on: S. aureus G (MRSA clinical isolate); type: cell-based, Staphylococcus aureus; conditions: G ( clinical isolate, 24 h)
Source text: as §1, §2, §3

[12] = tested on: S. aureus ATCC 25923; type: cell-based, Staphylococcus aureus; conditions: ATCC 25923, 24 h
Source text: as §1, §2, §3

[13] = tested on: S. aureus 11 (MRSA clinical isolate); type: cell-based, Staphylococcus aureus; conditions: 11 ( clinical isolate, 24 h)
Source text: as §1, §2, §3

[14] = tested on: S. aureus E (MRSA clinical isolate); type: cell-based, Staphylococcus aureus; conditions: E ( clinical isolate, 24 h)
Source text: as §1, §2, §3

[15] = tested on: A. baumannii ATCC 17978; type: cell-based, Acinetobacter baumannii; conditions: ATCC 17978, 24 h
Source text: as §1, §2, §3

[16] = tested on: A. baumannii ATCC 19606; type: cell-based, Acinetobacter baumannii; conditions: ATCC 19606, 24 h
Source text: as §1, §2, §3

[17] = tested on: B. cenocepacia J2315; type: cell-based, Burkholderia cenocepacia; conditions: 48 h
Source text: as §1, §2
as §3, with “For bacteria, a mid-log phase bacterial suspension at 2.5 × 10^5 CFU/mL in MHB was used, and the microplates incubated at 37°C for 24h.” left out

[18] = tested on: E. faecalis M (VREF clinical isolate); type: cell-based, Enterococcus faecalis; conditions: M (VREF clinical isolate, 24 h)
Source text: as §1, §2, §3

[19] = tested on: E. coli ATCC 25922; type: cell-based, Escherichia coli; conditions: ATCC 25922, 24 h
Source text: as §1, §2, §3

[20] = tested on: P. aeruginosa ATCC 27853; type: cell-based, Pseudomonas aeruginosa; conditions: ATCC 27853, 24 h
Source text: as §1, §2, §3

[21] = tested on: B. subtilis DSM 4181; type: cell-based, Bacillus subtilis; conditions: DSM 4181, 24 h
Source text: as §1, §2, §3

[22] = tested on: S. typhimurium ATCC 14028; type: cell-based, Salmonella typhimurium; conditions: ATCC 14028, 24 h
Source text: as §1, §2, §3

[23] = tested on: S. epidermidis ATCC 12228; type: cell-based, Staphylococcus epidermidis; conditions: ATCC 12228, 24 h
Source text: as §1, §2
The antimicrobial activity of USCLs was determined by the Minimum Inhibitory Concentration (MIC) assay, according to the guidelines of CLSI (Clinical & Laboratory Standards Institute) and described in [30, 31]. […]

SMILES	MIC [1] [µg/mL]	MIC [2] [µg/mL]	MIC [3] [µg/mL]	MIC [4] [µg/mL]	MIC [5] [µg/mL]	MIC [6] [µg/mL]	MIC [7] [µg/mL]	MIC [8] [µg/mL]	Retention time [9] [min]	MIC [10] [µg/mL]	MIC [11] [µg/mL]	MIC [12] [µg/mL]	MIC [13] [µg/mL]	MIC [14] [µg/mL]	MIC [15] [µg/mL]	MIC [16] [µg/mL]	MIC [17] [µg/mL]	MIC [18] [µg/mL]	MIC [21] [µg/mL]	MIC [22] [µg/mL]	other results
CCCCCCCCCCCC(=O)N[C@@H](CCCNC(=N)N)C(=O)N[C@@H](CCCNC(=N)N)C(=O)N[C@H](C(=O)N[C@@H](Cc1c[nH]c2ccccc12)C(N)=O)[C@@H](C)CC [Lau-RRIW, Lau-RRIW-NH2] (Lauroyl-RRIW-NH2)	3.125 (≈ 3.85 µM)	12.5 (≈ 15.4 µM)	3.125 (≈ 3.85 µM)	12.5 (≈ 15.4 µM)	6.25 (≈ 7.71 µM)	12.5 (≈ 15.4 µM)			20.957	3.125 (≈ 3.85 µM)	3.125 (≈ 3.85 µM)	3.125 (≈ 3.85 µM)		3.125 (≈ 3.85 µM)	25 (≈ 30.8 µM)	12.5 (≈ 15.4 µM)	6.25 (≈ 7.71 µM)	6.25 (≈ 7.71 µM)	3.125 (≈ 3.85 µM)	25 (≈ 30.8 µM)	MIC [19]: 12.5 µg/mL (≈ 15.4 µM); MIC [20]: 12.5 µg/mL (≈ 15.4 µM)
CCCCCCCCCCCC(=O)N[C@@H](CCCNC(=N)N)C(=O)N[C@H](C(=O)N[C@@H](Cc1c[nH]c2ccccc12)C(=O)N[C@@H](CCCNC(=N)N)C(N)=O)[C@@H](C)CC [Lp-I] (Lauroyl-RIWR-NH2)							50 (≈ 61.6 µM)	100 (≈ 123 µM)		3.125 (≈ 3.85 µM)	3.125 (≈ 3.85 µM)			3.125 (≈ 3.85 µM)	25 (≈ 30.8 µM)	25 (≈ 30.8 µM)	12.5 (≈ 15.4 µM)			25 (≈ 30.8 µM)	MIC [23]: 3.125 µg/mL (≈ 3.85 µM)
CCCCCCCCCCCC(=O)N[C@@H](CCCNC(=N)N)C(=O)N[C@@H](CCSC)C(=O)N[C@@H](Cc1c[nH]c2ccccc12)C(=O)N[C@@H](CCCNC(=N)N)C(N)=O [Lp-M, Lau-RMWR-NH2] (Lauroyl-RMWR-NH2)	3.125 (≈ 3.77 µM)	12.5 (≈ 15.1 µM)	3.125 (≈ 3.77 µM)	12.5 (≈ 15.1 µM)	6.25 (≈ 7.54 µM)	25 (≈ 30.2 µM)	100 (≈ 121 µM)	>100	12.393		6.25 (≈ 7.54 µM)	6.25 (≈ 7.54 µM)	6.25 (≈ 7.54 µM)	6.25 (≈ 7.54 µM)	25 (≈ 30.2 µM)	25 (≈ 30.2 µM)	25 (≈ 30.2 µM)	12.5 (≈ 15.1 µM)	3.125 (≈ 3.77 µM)		MIC [23]: 3.125 µg/mL (≈ 3.77 µM)

Continued, in another order:

MIC [1] [µg/mL]	MIC [2] [µg/mL]	MIC [3] [µg/mL]	MIC [4] [µg/mL]	MIC [5] [µg/mL]	MIC [6] [µg/mL]	MIC [7] [µg/mL]	MIC [8] [µg/mL]	Retention time [9] [min]	MIC [10] [µg/mL]	MIC [11] [µg/mL]	MIC [12] [µg/mL]	MIC [13] [µg/mL]	MIC [14] [µg/mL]	MIC [15] [µg/mL]	MIC [16] [µg/mL]	MIC [17] [µg/mL]	MIC [18] [µg/mL]	MIC [21] [µg/mL]	MIC [22] [µg/mL]	SMILES	other results
3.125 (≈ 3.7 µM)	6.25 (≈ 7.4 µM)	3.125 (≈ 3.7 µM)	12.5 (≈ 14.8 µM)	6.25 (≈ 7.4 µM)	12.5 (≈ 14.8 µM)	25 (≈ 29.6 µM)	50 (≈ 59.2 µM)	22.609	3.125 (≈ 3.7 µM)	6.25 (≈ 7.4 µM)	3.125 (≈ 3.7 µM)	6.25 (≈ 7.4 µM)	3.125 (≈ 3.7 µM)	12.5 (≈ 14.8 µM)	12.5 (≈ 14.8 µM)	12.5 (≈ 14.8 µM)				CCCCCCCCCCCC(=O)N[C@@H](CCCNC(=N)N)C(=O)N[C@@H](CCCNC(=N)N)C(=O)N[C@@H](Cc1ccccc1)C(=O)N[C@@H](Cc1c[nH]c2ccccc12)C(N)=O [Lau-RRFW, Lau-RRFW-NH2] (Lauroyl-RRFW-NH2)	
1.56 (≈ 1.35 µM)	12.5 (≈ 10.8 µM)	1.56 (≈ 1.35 µM)	100 (≈ 86.4 µM)	6.25 (≈ 5.4 µM)	25 (≈ 21.6 µM)	25 (≈ 21.6 µM)	25 (≈ 21.6 µM)	22.087		3.125 (≈ 2.7 µM)	3.125 (≈ 2.7 µM)	3.125 (≈ 2.7 µM)	3.125 (≈ 2.7 µM)	25 (≈ 21.6 µM)		12.5 (≈ 10.8 µM)	6.25 to 12.5	1.56 (≈ 1.35 µM)	25 (≈ 21.6 µM)	CCCCCCCCCCCC(=O)N[C@@H](CCCNC(=N)N)C(=O)N[C@@H](CCCNC(=N)N)C(=O)N[C@@H](Cc1ccccc1)C(=O)N[C@@H](Cc1c[nH]c2ccccc12)C(=O)N[C@@H](CCCNC(=N)N)C(=O)N[C@@H](CCCNC(=N)N)C(N)=O [Lp-F^RR, Lau-RRFWRR-NH2] (Lauroyl-RRFWRR-NH2)	MIC [19]: 12.5 µg/mL (≈ 10.8 µM); MIC [20]: 12.5 µg/mL (≈ 10.8 µM)
	12.5 (≈ 14.6 µM)	1.56 (≈ 1.83 µM)	50 (≈ 58.5 µM)	6.25 (≈ 7.32 µM)	25 (≈ 29.3 µM)	100 (≈ 117 µM)	>100	21.651		3.125 (≈ 3.66 µM)	3.125 (≈ 3.66 µM)	3.125 (≈ 3.66 µM)	3.125 (≈ 3.66 µM)			50 (≈ 58.5 µM)	12.5 (≈ 14.6 µM)	1.56 (≈ 1.83 µM)	100 (≈ 117 µM)	CCCCCCCCCCCC(=O)N[C@@H](CCCNC(=N)N)C(=O)N[C@@H](CCCNC(=N)N)C(=O)N[C@@H](Cc1c[nH]c2ccccc12)C(=O)N[C@@H](CCCNC(=N)N)C(N)=O [Lp-R, Lau-RRWR-NH2] (Lauroyl-RRWR-NH2)	MIC [19]: 12.5 µg/mL (≈ 14.6 µM); MIC [20]: 25 µg/mL (≈ 29.3 µM)

From PMC6383929, “Design, antimicrobial activity and mechanism of action of Arg-rich ultra-short cationic lipopeptides” (PLoS ONE, 2019)
